Data on 9 compounds can be found in US9023763B2, “Modification of trehalose-6-phosphate levels in plants” (Isis Innovation Limited, priority 2011, dated 2015).

Where two headings read alike, the source gives them in different places.

A short description of data set [1]: In-planta uptake after feeding to roots of seedlings, quantified by HPLC/LCMS. Particulars: for concentration at 72 h / uptake in μg/10 mg of seedling: protected T6P compounds, after 72 h (3 days), n = 3; for concentration at 72 h / Uptake % / uptake in μg/10 mg of seedling: Arabidopsis seedling; for concentration at 72 h: read-out: uptake in μg/10 mg of seedling; for in-planta uptake (in words): after 72 h; for Uptake %: proportion of compound fed taken up by the plant, 72 h. Format: in vivo, Arabidopsis thaliana. As for the experimental part:
Aqueous solutions of each of Examples 1 to 4 were fed to roots of seedlings of Arabidopsis thaliana and after a certain period of time the aerial (shoot) part of seedling was harvested carefully and extracted in H2O:MeOH (1:1) under liquid nitrogen to get crude fresh plant extract. The crude fresh plant extract thus obtained was analysed by mass spec and using HPLC to quantify the amount of compound taken up.
An aqueous solution of NB-T6P (Example 1) was fed to the seedlings, at 1 mM final concentration, near to the root and uptake was monitored in freshly prepared extract after 24 h, 48 h and 72 h using both HPLC and mass technique.
The quantitative analysis of the compounds taken up into the plant was carried out using freshly prepared plant extract by LCMS and summarised data are given in Table 2.

Data set [2] in a line: In vitro deprotection under UV light and sunlight, followed by mass spectrometry/TLC and P NMR. In kind it is physicochemical. Particulars: for deprotection time: 5 mM in phosphate buffer pH 7.4. From the text: Two experimental techniques were chosen for studying the progress of deprotection experiments i.e. i) Mass spectroscopy and TLC (spot), and ii) P NMR. Progress of the reactions was monitored by looking for the disappearance of peak corresponding to protected compounds and appearance of peak corresponding to T6P. The structure of completely uncaged compound i.e. T6P was established by 1D and 2D NMR.
Both experimental techniques were very efficient and reproducible to analyse the deprotection experiments. Five millimolar solutions of Examples 1 to 4 were prepared in phosphate buffer (pH 7.4) and the resulting solution was exposed to different wavelengths of UV light and sunlight to monitor deprotection at different time intervals.
After successful synthesis of protected-G6P(1-OMe) compounds their deprotection was carried out under various wavelength and power of UV light.

The subject of another data set is Arabidopsis thaliana. Kind of data set: Increased starch production in treated plants. Particulars: 0.1 mM in the media. Format: in vivo. The procedure:
Pre-stratified Arabidopsis thaliana seeds were sown in sterile culture on 0.5 mL solid medium (0.5× Murashige and Skoog with Gamborg's vitamins, 0.5% agar) in 0.5 mL tubes pierced with a small hole in the bottom. Tubes were arrayed in polystyrene racks and floated in liquid medium without added sucrose in Phytatrays. Seedlings were grown under 12 hr days under fluorescent lights giving 250 μmo/m^2/s, and 23° C. day/18° C. night temperatures. At 16-20 days after sowing the liquid medium was removed and the tubes were sealed with electrician's tape. All plants were topped up with 0.5×MS medium with no sucrose. Plants were treated with compound example 3, or water by adding example 3 to a final concentration of 0.1 mM in the media. On the third day plants were subjected to growth lights supplemented with UV light (8 W UV bulb) from a Gelman transilluminator (Model 51438) at a distance of 6 cm for 8 h. Plants were allowed to recover for a further day and the aerial parts were harvested at the end of the day, weighed and frozen in liquid nitrogen. Starch was extracted according to published methods, converted to glucose and measured as nmol glucose/gram fresh weight (Nature Protocol 2006, 1, 1342). Results are depicted in FIG. 6.

In the next data set the test system is SnRK1. Kind of data set: SnRK1 assay (Plant Physiol. 2009, 149, 1860-1871). Format: biochemical. The procedure: The compounds synthesised in Examples 1 to 4 were tested against the known target for T6P in vitro i.e. SnRK1, using the assay described in Plant Physiol. 2009, 149, 1860-1871.
T6P deprotected by treatment of NB-T6P (Example 1) under deprotection conditions of 125 W/365 nm radiation was included in SnRK1 assays (carried out in accordance with Plant Physiol. 2009, 149, 1860-1871) to determine its inhibition effect and compared to commercially available T6P from Sigma. The results are depicted in FIG. 3.

[3] abbreviates: Arabidopsis thaliana, in vivo, 1 mM.

Consider `COc1cc(COP(=O)(O)OCC2O[C@H](O[C@H]3OC(CO)[C@@H](O)C(O)C3O)C(O)C(O)[C@@H]2O)c([N+](=O)[O-])cc1OC` (some centres unmarked) [Example 4, Mono-DMNB-T6P], for which the concentration at 72 h is 360000 ng/g in data set [1] (setting [3]) and 360000 ng/g in data set [1] (Arabidopsis thaliana, in vivo). Also, the “in-planta uptake (in words)” value in data set [1] was “taken up by the plant”. The Uptake % in data set [1] was found to be 1%. The deprotection time was 600 min in data set [2] (8 W/254 nm); 360 min in data set [2] (8 W/365 nm); 45 min in data set [2] (125 W/200-400 nm); 45 min in data set [2] (125 W/365 nm); 360 min in data set [2] (Sun light).

Turning to `CO[C@H]1O[C@H](COP(=O)(OCc2ccccc2[N+](=O)[O-])OCc2ccccc2[N+](=O)[O-])[C@@H](O)[C@H](O)[C@H]1O` [NB-G6P(1-OMe)], the “deprotection time of caged G6P(1-OMe)” value came out at 6 h in data set [2] (8 W/254 nm); 8 h in data set [2] (8 W/365 nm); 0.75 h in data set [2] (125 W/200-400 nm); 1.25 h in data set [2] (125 W/365 nm); 8 h in data set [2] (Sun light).

In the case of `O=[N+]([O-])c1ccccc1COP(=O)(OCc1ccccc1[N+](=O)[O-])OCC1O[C@H](O[C@H]2OC(CO)[C@@H](O)C(O)C2O)C(O)C(O)[C@@H]1O` (some centres unmarked) [Example 1, NB-T6P], the concentration at 24 h in data set [1] (Arabidopsis thaliana, in vivo, 1 mM final concentration fed near the root, 24 h) was 263000 ng/g. The concentration at 48 h in data set [1] (Arabidopsis thaliana, in vivo, 1 mM final concentration fed near the root, 48 h) was 605000 ng/g. This compound returned an Uptake % in data set [1] of 14%. Moreover, in data set [1], the “uptake in μg/10 mg of seedling” value is listed as 26.39 μg/10 mg of seedling. The deprotection time was determined as 240 min in data set [2] (8 W/254 nm); 360 min in data set [2] (8 W/365 nm); 15 min in data set [2] (125 W/200-400 nm); 30 min in data set [2] (125 W/365 nm); 360 min in data set [2] (Sun light).

Consider `CC(OP(=O)(OCC1O[C@H](O[C@H]2OC(CO)[C@@H](O)C(O)C2O)C(O)C(O)[C@@H]1O)OC(C)c1ccccc1[N+](=O)[O-])c1ccccc1[N+](=O)[O-]` (some centres unmarked) [Example 3, NPE-T6P], for which, in data set [1], the “in-planta uptake (in words)” value is “taken up by the plant”. The compound also gave an Uptake % in data set [1] of 18%. In addition, the “uptake in μg/10 mg of seedling” value in data set [1] is on record as 66.0 μg/10 mg of seedling. The “increase in amount of starch produced relative to concentration of T6P released in-planta” value with Arabidopsis thaliana (8 W UV for 8 h) is “tenfold higher”. In the data set on Arabidopsis thaliana (growth lights plus 8 W UV bulb for 8 h on third day, harvested a day later, FIG. 6), the “starch levels compared to plants treated with water only” value is listed as “significantly higher starch levels”. The deprotection time in data set [2] (8 W/254 nm) is reported as 90 min; in data set [2] (8 W/365 nm), 90 min; in data set [2] (125 W/200-400 nm), 10 min; in data set [2] (125 W/365 nm) it was 20 min; in data set [2] (Sun light), 90 min.

Take `COc1cc(COP(=O)(O)OC[C@H]2O[C@H](OC)[C@H](O)[C@@H](O)[C@@H]2O)c([N+](=O)[O-])cc1OC` [Mono-DMNB-G6P(1-OMe)]: the “deprotection time of caged G6P(1-OMe)” value in data set [2] (8 W/254 nm) worked out at 10 h; in data set [2] (8 W/365 nm), 10 h; in data set [2] (125 W/200-400 nm), 1.25 h; in data set [2] (125 W/365 nm) it was 1.25 h; in data set [2] (Sun light), 8 h.

Turning to `O=P(O)(O)OC[C@H]1O[C@H](O[C@H]2O[C@H](CO)[C@@H](O)[C@H](O)[C@H]2O)[C@H](O)[C@@H](O)[C@@H]1O` [Example T6P, trehalose-6-phosphate], the SnRK1 inhibition entry in the data set with SnRK1 (T6P obtained from deprotection of Example 1 (125 W/365 nm), 0.32 mM, FIG. 3) is listed as “inhibits SnRK1 in the same way as commercially available T6P”; in the data set on SnRK1 (in vitro, in duplicate, FIG. 1) it was “shows typical inhibition”.

For the compound `COC1OC(COP(=O)(OC(C)c2ccccc2[N+](=O)[O-])OC(C)c2ccccc2[N+](=O)[O-])C(O)C(O)C1O` (mixture of isomers) [NPE-G6P(1-OMe)], the “deprotection time of caged G6P(1-OMe)” value worked out at 2 h in data set [2] (8 W/254 nm); 2 h in data set [2] (8 W/365 nm); 0.75 h in data set [2] (125 W/200-400 nm); 1.25 h in data set [2] (125 W/365 nm); 10 h in data set [2] (Sun light).

With `COc1cc(COP(=O)(OCc2cc(OC)c(OC)cc2[N+](=O)[O-])OCC2O[C@H](O[C@H]3OC(CO)[C@@H](O)C(O)C3O)C(O)C(O)[C@@H]2O)c([N+](=O)[O-])cc1OC` (some centres unmarked) [Example 2, DMNB-T6P], the concentration at 72 h in data set [1] (setting [3]) amounted to 318000 ng/g; in data set [1] (Arabidopsis thaliana, in vivo), 318000 ng/g. Further, the “in-planta uptake (in words)” value in data set [1] is reported as “taken up by the plant”. Besides, the Uptake % in data set [1] came to 1%. Moreover, the deprotection time in data set [2] (8 W/254 nm) turned out to be 600 min; in data set [2] (8 W/365 nm), 600 min; in data set [2] (125 W/200-400 nm), 60 min; in data set [2] (125 W/365 nm), 60 min; in data set [2] (Sun light), 480 min.

As to `COc1cc(COP(=O)(OCc2cc(OC)c(OC)cc2[N+](=O)[O-])OC[C@H]2O[C@H](OC)[C@H](O)[C@@H](O)[C@@H]2O)c([N+](=O)[O-])cc1OC` [DMNB-G6P(1-OMe)], the “deprotection time of caged G6P(1-OMe)” value in data set [2] (8 W/254 nm) stood at 10 h; in data set [2] (8 W/365 nm), 10 h; in data set [2] (125 W/200-400 nm) it was 2 h; in data set [2] (125 W/365 nm), 2 h; in data set [2] (Sun light), 10 h.
